Data set [1] relates to metabolism of vonoprazan in rat liver microsomes. In words: Inhibition of vonoprazan metabolism by poziotinib in rat liver microsomes. Type of data set: in vitro ADME. How it is done:
Rat liver microsomes (RLMs) were prepared according to the previously reported differential centrifugation method (Eriksson [1978]; Wang et al. [2018]), and the concentration of total protein in the RLM was determined to be 28 mg/mL by the BCA protein quantitative method. Then, a 200 μL incubation system was established, which consisted of 5 μg RLM, 100 mM phosphate buffer (pH 7.4), 10 μM vonoprazan (close to its Km), and a series gradient concentration of poziotinib (100, 50, 10, 5, 1, 0.1, 0.01 μM). The mixture was preincubated at 37 °C for 5 min, and NADPH (1 mM) was then added to start the reaction after vortexing. The mixture was placed at 37 °C in a water bath for 30 min with shaking, and 200 μL acetonitrile was added to terminate the reaction and precipitate the protein. Diazepam-acetonitrile solution was then added accurately to serve as the internal standard. After vortexing, the mixture was centrifuged at 12,000 rpm for 10 min and the supernatant was transferred to the sample bottle for further separation. Vonoprazan and its metabolite M-I were detected by UPLC-MS/MS according to the previously reported method (Shen et al. [2020]). The nonlinear regression equation was fitted with GraphPad Prism 9.0 software to calculate the IC50 value of poziotinib.
To better understand the inhibitory mechanism of poziotinib on vonoprazan, a series of gradient concentrations of vonoprazan were used in the reaction, which included 1/4-, 1/2-, 1-, and 2-times the Km value. Similarly, concentrations of 0, 1/4-, 1/2-, 1-, and 2-times the IC50 of poziotinib were also included in the experiment. The above mentioned UPLC-MS/MS method was used for the quantification of the vonoprazan metabolite M-I. Ki and αKi values were calculated, and the inhibitory mechanism was analyzed using a primary Lineweaver-Burk diagram, Dixon diagram, and secondary Lineweaver-Burk diagram by GraphPad Prism 9.0.
A general note: Liver microsomes are a subcellular fraction often used to study metabolism.

Details of data set [2]: method as in Suzuki et al. ([2021]). The note with it: kidney transplant recipients, after switching from rabeprazole to vonoprazan coadministration; ref Suzuki et al. ([2021]); cited from earlier work.
Data set [3] in a line: Pharmacokinetics of vonoprazan and metabolite M-I in rats with and without poziotinib pretreatment. Type of data set: in vivo, Sprague-Dawley (SD) rats. The note with it: vonoprazan; for CL/F / Cmax / Tmax / half-life / MRT last / MRT inf / Vd/F: male, Sprague-Dawley, rat, serum, po, 10 mg/kg; for CL/F: 10 mg/kg gavage, read-out: CLz/F (converted); for MRT last: read-out: MRT(0-t); for MRT inf: read-out: MRT(0-∞); for Vd/F: read-out: Vz/F. The protocol: Twelve healthy male SD rats were randomly divided into two groups. The poziotinib group was given 5 mg/kg poziotinib by gavage every day for 7 days, and rats in the control group only received equal amounts of 0.5% CMC-Na solution in the pre-treatment time. Then animals in the poziotinib group and the control group were fasted for 12 h. On Day 8, the poziotinib group was given poziotinib (5 mg/kg) by gavage, and vonoprazan (10 mg/kg) was given 30 min later, while the control group was only given vonoprazan (10 mg/kg) by gavage. Tail venous blood (300 µL) was collected at 0.083, 0.25, 0.5, 1, 2, 3, 4, 6, 12, and 24 h after the administration of vonoprazan, and then the blood was centrifuged at 4,000 rpm, and 4 °C for 10 min. The serum was collected and stored at −80 °C. After thawing at room temperature, 100 μL of the serum sample was removed and 200 μL of acetonitrile containing diazepam (500 ng/mL) was then added to precipitate proteins. After vortexing, 150 μL of supernatant was removed and centrifuged at 13,000 rpm for 5 min. Then, 2 μL of sample was used for the detection of vonoprazan and its main metabolite M-I by UPLC-MS/MS.
DAS (version 3.2.8; The People’s Hospital of Lishui) was used to fit and calculate the pharmacokinetic parameters of vonoprazan and its metabolite M-I, which include peak time (Tmax), maximum plasma concentration (Cmax), elimination half-life (T1/2), area under the drug-time curve (AUC) and clearance rate (CLz/F). SPSS (version 25.0, IBM, USA) was used for the data processing. Student’s t-test was used to compare the normal distribution of the data, and the Mann–Whitney U test was used for the nonnormal distribution of the data. *p < 0.05 indicates a significant difference compared to the control group and **p < 0.001 indicates an extremely significant difference compared to the control group.
ACQUITY I-Class UPLC and Waters XEVO TQD MS (Milford, MA, USA) were used for the detection of vonoprazan and M-I with an ACQUITY UPLC BEH C18 chromatographic column (50 × 2.1 mm, 1.7 μm) at 40 °C. […] The injection volume of the sample was 2 μL. The scanning method was multiple reaction monitoring (MRM) with detection in positive ion mode and an ESI + ion source. Other mass spectrometry parameters were as follows: capillary voltage 2.0 kV, ion source temperature 150 °C, dissolvent temperature 500 °C, argon flow rate 0.15 mL/min, cone hole gas flow 50 L/h, solvent gas flow 1000 L/h. The precursor ion and product ion were m/z 346.04→314.97 for vonoprazan, m/z 347.50→205.00 for M-I, and m/z 285.10→193.10 for internal standard (IS), diazepam.

Data set [4] in a line: Michaelis-Menten kinetics of vonoprazan in rat liver microsomes. Type of data set: in vitro ADME. The conditions noted are these: pH 7.4, vonoprazan as substrate. How it is done:
Rat liver microsomes (RLMs) were prepared according to the previously reported differential centrifugation method (Eriksson [1978]; Wang et al. [2018]), and the concentration of total protein in the RLM was determined to be 28 mg/mL by the BCA protein quantitative method. Then, a 200 μL incubation system was established, which consisted of 5 μg RLM, 100 mM phosphate buffer (pH 7.4), 10 μM vonoprazan (close to its Km), and a series gradient concentration of poziotinib (100, 50, 10, 5, 1, 0.1, 0.01 μM). The mixture was preincubated at 37 °C for 5 min, and NADPH (1 mM) was then added to start the reaction after vortexing. […] Vonoprazan and its metabolite M-I were detected by UPLC-MS/MS according to the previously reported method (Shen et al. [2020]). […]
To better understand the inhibitory mechanism of poziotinib on vonoprazan, a series of gradient concentrations of vonoprazan were used in the reaction, which included 1/4-, 1/2-, 1-, and 2-times the Km value. […] The above mentioned UPLC-MS/MS method was used for the quantification of the vonoprazan metabolite M-I. Ki and αKi values were calculated, and the inhibitory mechanism was analyzed using a primary Lineweaver-Burk diagram, Dixon diagram, and secondary Lineweaver-Burk diagram by GraphPad Prism 9.0.

Where [5] appears, read: oral 10 mg/kg, control group (no poziotinib).
Where [6] appears, read: oral 10 mg/kg, poziotinib group (5 mg/kg oral pretreatment).
Setting [7] is: oral 10 mg/kg, poziotinib 5 mg/kg pretreatment.

Where two headings read alike, the source gives them in different places.

Usually Ki stands for the dissociation constant of the complex between target and ligand, obtained from inhibition or displacement. Usually IC50 stands for the concentration that gives 50% inhibition. With `C=CC(=O)N1CCC(Oc2cc3c(Nc4ccc(Cl)c(Cl)c4F)ncnc3cc2OC)CC1` [poziotinib], the inhibition mechanism entry in data set [1] (Lineweaver-Burk plot) is “mixed model of noncompetitive and uncompetitive inhibition”. The Ki in data set [1] (Lineweaver-Burk, slope of primary plot, read-out: inhibitory constant Ki) was determined as 0.574 µM. Further, the 50% inhibitory concentration (IC50) at 30 min in data set [1] (pH 7.4, probe vonoprazan 10 μM (metabolite M-I measured), 10 μM vonoprazan, NADPH 1 mM, 37 °C 30 min) worked out at 10.6 µM.
In the case of `C=CC[C@@H]1/C=C(\C)C[C@H](C)C[C@H](OC)[C@H]2O[C@@](O)(C(=O)C(=O)N3CCCC[C@H]3C(=O)O[C@H](/C(C)=C/[C@@H]3CC[C@@H](O)[C@H](OC)C3)[C@H](C)[C@@H](O)CC1=O)[C@H](C)C[C@@H]2OC` [tacrolimus], in data set [2], the “increase of blood concentration of tacrolimus” value is recorded as 65.8%.
As usually defined, the Cmax is the highest concentration seen after dosing. For orientation: Tmax means the time from dosing to the highest level. In general, half-life refers to the time needed for the level to fall by half in the phase considered. As a reminder, the Km is the concentration of substrate that gives half-maximal velocity. `CNCc1cc(-c2ccccc2F)n(S(=O)(=O)c2cccnc2)c1` [vonoprazan]: the CL/F in data set [3] (control group) is 2710 mL/min/kg. Besides, the CL/F in data set [3] (poziotinib pretreatment 5 mg/kg) is 431 mL/min/kg. For the same molecule, in data set [3] (setting [5]), the Cmax is 5.69 ± 3.73 ng/mL, the Tmax amounted to 0.63 ± 0.31 h, the half-life was 1.25 ± 0.77 h and the MRT last stood at 2.29 ± 0.36 h. In data set [3] (setting [5]), the MRT inf was 2.29 ± 0.36 h and the Vd/F amounted to 298 ± 191 L/kg. In data set [3] (setting [6]), the Cmax amounted to 15.4 ± 4.98 ng/mL, the Tmax worked out at 1.92 ± 2.06 h, the half-life is 2.84 ± 1.44 h and the MRT last was 5.26 ± 1.77 h. In data set [3] (setting [6]), the MRT inf was 5.51 ± 2.06 h and the Vd/F amounted to 90.5 ± 27.3 L/kg. Further, in data set [3] (setting [7]), the “AUC(0-T) increase, poziotinib group vs control group” value was determined as 6.02 fold; the “AUC(0-∞) increase, poziotinib group vs control group” value was 6.11 fold; the “CLz/F reduction, poziotinib group vs control group” value was 84%; the “Cmax increase, poziotinib group vs control group” value came out at 2.7 fold. Besides, in data set [3] (setting [7]), the “MRT(0-T) increase, poziotinib group vs control group” value is reported as 2.30 fold; the “MRT(0-∞) increase, poziotinib group vs control group” value came out at 2.41 fold; the “T1/2 increase, poziotinib group vs control group” value worked out at 2.2 fold; the “Tmax increase, poziotinib group vs control group” value was determined as 3.0 fold. Moreover, the “Vz/F reduction, poziotinib group vs control group” value in data set [3] (setting [7]) is given as 70%. Also, the Km at 30 min in data set [4] was determined as 14.3 µM.
